The experiment concerns CD2F1 mice, L1210 leukemia ip, survival T/C. Briefly: NCI In Vivo Anticancer Drug Screen. Data for tumor model L1210 Leukemia (intraperitoneal) in CD2F1 (CDF1) mice. The settings on record: higher = longer survival. A digest of the protocol:
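Tumor-bearing mice (transplanted tumor) were split into treated and vehicle control groups, and the measured endpoint of each treated group was divided by that of its vehicle controls.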

[1] abbreviates: endpoint: mean survival time, dose: 100.0 mg/kg/injection, schedule: Q04DX003 (ip), vehicle: saline with Tween-80.
Setting [2] is: endpoint: mean survival time, dose: 200.0 mg/kg/injection, schedule: Q04DX003 (ip), vehicle: saline with Tween-80.
Setting [3] is: endpoint: mean survival time, dose: 400.0 mg/kg/injection, schedule: Q04DX003 (ip), vehicle: saline with Tween-80.
[4] abbreviates: endpoint: mean survival time, dose: 100.0 mg/kg/injection, schedule: Q01DX009 (ip), vehicle: saline with Tween-80.
The mark [5] stands for this setting: endpoint: mean survival time, dose: 200.0 mg/kg/injection, schedule: Q01DX009 (ip), vehicle: saline with Tween-80.
The mark [6] stands for this setting: endpoint: mean survival time, dose: 400.0 mg/kg/injection, schedule: Q01DX009 (ip), vehicle: saline with Tween-80.
Setting [7] is: endpoint: mean survival time, dose: 200.0 mg/kg/injection, schedule: Q01DX001 (ip), vehicle: saline.
The mark [8] stands for this setting: endpoint: mean survival time, dose: 50.0 mg/kg/injection, schedule: Q01DX009 (ip), vehicle: saline with Tween-80.

Several values for one entry are separate records, joined by “and”; a condition that tells them apart may be missing. Equal values may be shown once. Inconclusive results and toxic doses are left out. Residues, ends and D or L forms follow the SMILES beside them. *: point of attachment. Octanoyl = CCCCCCCC(=O)*

For `CCCCCC(/C=C/C1C=CC(=O)C1C/C=C/CCCC(=O)OC)OC(C)=O` (configuration not stated), the T/C reads like this: under setting [1], 95 % of control; under setting [2], 100 % of control; under setting [3], 95 % of control.
With `N#Cc1c(F)c(F)c(C#N)c(F)c1F`, the T/C was 104 % of control (endpoint: mean survival time, dose: 5.0 mg/kg/injection, schedule: Q04DX003 (ip), vehicle: Klucel (hydroxypropylcellulose) (HPC)); 106 % of control (endpoint: mean survival time, dose: 10.0 mg/kg/injection, schedule: Q04DX003 (ip), vehicle: Klucel (hydroxypropylcellulose) (HPC)); 102 % of control (endpoint: mean survival time, dose: 20.0 mg/kg/injection, schedule: Q04DX003 (ip), vehicle: Klucel (hydroxypropylcellulose) (HPC)); 104 % of control (endpoint: mean survival time, dose: 40.0 mg/kg/injection, schedule: Q04DX003 (ip), vehicle: Klucel (hydroxypropylcellulose) (HPC)).
Turning to `O=C(NCCc1nc(-c2nc(C(=O)O)cs2)cs1)c1ccccc1`, the T/C under setting [4] was 96 % of control, the T/C under setting [5] is 96 % of control and the T/C under setting [6] is 96 % of control.
Regarding `O=Cc1c2ccccc2cc2ccccc12`, the T/C (endpoint: mean survival time, dose: 89.0 mg/kg/injection, schedule: Q01DX001 (ip), vehicle: saline) is 170 % of control; the T/C (endpoint: mean survival time, dose: 133.0 mg/kg/injection, schedule: Q01DX001 (ip), vehicle: saline) is 167 % of control; the T/C under setting [7] was 162 % of control.
In the case of `O=C1CSC(c2cccs2)N1c1nncs1` (configuration not stated), the T/C reads like this: (endpoint: median survival time, dose: 25.0 mg/kg/injection, schedule: Q01DX005 (ip), vehicle: Klucel (hydroxypropylcellulose) (HPC)) 94 % of control; (endpoint: median survival time, dose: 50.0 mg/kg/injection, schedule: Q01DX005 (ip), vehicle: Klucel (hydroxypropylcellulose) (HPC)) 102 % of control and 104 % of control and 110 % of control; (endpoint: median survival time, dose: 100.0 mg/kg/injection, schedule: Q01DX005 (ip), vehicle: Klucel (hydroxypropylcellulose) (HPC)) 94 % of control and 96 % of control and 103 % of control; (endpoint: median survival time, dose: 200.0 mg/kg/injection, schedule: Q01DX005 (ip), vehicle: Klucel (hydroxypropylcellulose) (HPC)) 116 % of control and 94 % of control (2×); (endpoint: median survival time, dose: 400.0 mg/kg/injection, schedule: Q01DX005 (ip), vehicle: Klucel (hydroxypropylcellulose) (HPC)) 107 % of control; (endpoint: median survival time, dose: 800.0 mg/kg/injection, schedule: Q01DX005 (ip), vehicle: Klucel (hydroxypropylcellulose) (HPC)) 115 % of control.
Consider `CCOP(=S)(NCCOC)OCC`, for which the T/C was 101 % of control under setting [1], 101 % of control under setting [2] and 100 % of control under setting [3].
`O=C(CCl)OCC(Cl)Cl`: the T/C under setting [4] is 104 % of control and the T/C under setting [5] is 112 % of control.
Turning to `Cc1ccc(NC(=O)N2CCN(C)CC2)cc1[N+](=O)[O-]`, the T/C under setting [8] is 94 % of control, the T/C under setting [4] is 90 % of control and the T/C under setting [5] was 94 % of control.
For the compound `CCCCCCCC(=O)NCC(=O)NCC(=O)O` (Octanoyl-Gly-Gly-OH), the T/C reads like this: (endpoint: mean survival time, dose: 6.25 mg/kg/injection, schedule: Q01DX001 (ip), vehicle: Klucel (hydroxypropylcellulose) (HPC)) 97 % of control; (endpoint: mean survival time, dose: 12.5 mg/kg/injection, schedule: Q01DX001 (ip), vehicle: Klucel (hydroxypropylcellulose) (HPC)) 95 % of control; (endpoint: mean survival time, dose: 25.0 mg/kg/injection, schedule: Q01DX001 (ip), vehicle: Klucel (hydroxypropylcellulose) (HPC)) 100 % of control; (endpoint: mean survival time, dose: 50.0 mg/kg/injection, schedule: Q01DX001 (ip), vehicle: Klucel (hydroxypropylcellulose) (HPC)) 93 % of control.
Take `O=C(c1ccc(-c2ccccc2)cc1)C(Br)C(Br)c1ccccc1` (configuration not stated): the T/C was 95 % of control (endpoint: mean survival time, dose: 12.5 mg/kg/injection, schedule: Q01DX009 (ip), vehicle: water); 90 % of control (endpoint: mean survival time, dose: 50.0 mg/kg/injection, schedule: Q01DX009 (ip), vehicle: water); 90 % of control (endpoint: mean survival time, dose: 100.0 mg/kg/injection, schedule: Q01DX009 (ip), vehicle: water); 102 % of control (endpoint: mean survival time, dose: 200.0 mg/kg/injection, schedule: Q01DX009 (ip), vehicle: water).
Take `CCC(CO)[N-]CC[N-]C(CC)CO.[Cl][Pt+2][Cl]` (configuration not stated): the T/C reads like this: (endpoint: median survival time, dose: 6.25 mg/kg/injection, schedule: Q04DX003 (ip), vehicle: saline) 101 % of control; (endpoint: median survival time, dose: 12.5 mg/kg/injection, schedule: Q04DX003 (ip), vehicle: saline) 107 % of control; (endpoint: median survival time, dose: 25.0 mg/kg/injection, schedule: Q04DX003 (ip), vehicle: saline) 109 % of control; (endpoint: median survival time, dose: 50.0 mg/kg/injection, schedule: Q04DX003 (ip), vehicle: saline) 121 % of control.
For `C/C(=N/NC(=O)c1ccccc1)c1cccc(O)c1`, the T/C runs as follows: under setting [4], 89 % of control; under setting [1], 94 % of control; under setting [2], 90 % of control; under setting [6], 103 % of control; under setting [3], 97 % of control.
For `CCCCOCCSc1ccccc1`, the T/C is 96 % of control (endpoint: mean survival time, dose: 100.0 mg/kg/injection, schedule: Q01DX001 (ip), vehicle: saline) and 93 % of control under setting [7].
`CCCCCCCCOc1nccc(N)n1`: the T/C runs as follows: (endpoint: mean survival time, dose: 18.75 mg/kg/injection, schedule: Q01DX001 (ip), vehicle: saline with Tween-80) 105 % of control; (endpoint: mean survival time, dose: 37.5 mg/kg/injection, schedule: Q01DX001 (ip), vehicle: saline with Tween-80) 100 % of control; (endpoint: mean survival time, dose: 75.0 mg/kg/injection, schedule: Q01DX001 (ip), vehicle: saline with Tween-80) 94 % of control.
On to `CC(C(=O)c1ccccc1)N(C)c1ccccc1` (configuration not stated), for which the T/C by setting is: (endpoint: mean survival time, dose: 100.0 mg/kg/injection, schedule: Q04DX003 (ip), vehicle: saline) 107 % of control; (endpoint: mean survival time, dose: 200.0 mg/kg/injection, schedule: Q04DX003 (ip), vehicle: saline) 100 % of control; (endpoint: mean survival time, dose: 400.0 mg/kg/injection, schedule: Q04DX003 (ip), vehicle: saline) 102 % of control.
On to `O=[N+]([O-])c1cccc(C2=NNC(c3cccc([N+](=O)[O-])c3)=NN2)c1`, for which the T/C (endpoint: median survival time, dose: 50.0 mg/kg/injection, schedule: Q01DX001 (ip), vehicle: saline with Tween-80) is 88 % of control; the T/C (endpoint: median survival time, dose: 100.0 mg/kg/injection, schedule: Q01DX001 (ip), vehicle: saline with Tween-80) was 92 % of control; the T/C (endpoint: median survival time, dose: 200.0 mg/kg/injection, schedule: Q01DX001 (ip), vehicle: saline with Tween-80) was 94 % of control; the T/C (endpoint: median survival time, dose: 400.0 mg/kg/injection, schedule: Q01DX001 (ip), vehicle: saline with Tween-80) was 95 % of control; the T/C (endpoint: median survival time, dose: 800.0 mg/kg/injection, schedule: Q01DX001 (ip), vehicle: saline with Tween-80) is 98 % of control.
As to `CC(=O)OCC(=O)C1CCC2C3CCC4CC(OC(C)=O)CCC4(C)C3CCC12C` (configuration not stated), the T/C (endpoint: mean survival time, dose: 100.0 mg/kg/injection, schedule: Q01DX001 (ip), vehicle: saline with Tween-80) was 91 % of control; the T/C (endpoint: mean survival time, dose: 200.0 mg/kg/injection, schedule: Q01DX001 (ip), vehicle: saline with Tween-80) was 91 % of control; the T/C (endpoint: mean survival time, dose: 400.0 mg/kg/injection, schedule: Q01DX001 (ip), vehicle: saline with Tween-80) was 105 % of control.
As to `CC(C)(C)OOCC1CO1` (configuration not stated), the T/C by setting is: under setting [4], 92 % of control; under setting [1], 98 % of control; under setting [5], 94 % of control; under setting [2], 105 % of control; under setting [6], 98 % of control; under setting [3], 96 % of control.
Take `C#CCOC1CCCCO1` (configuration not stated): the T/C runs as follows: (endpoint: mean survival time, dose: 25.0 mg/kg/injection, schedule: Q01DX009 (ip), vehicle: saline) 102 % of control; (endpoint: mean survival time, dose: 50.0 mg/kg/injection, schedule: Q01DX009 (ip), vehicle: saline) 108 % of control; (endpoint: mean survival time, dose: 100.0 mg/kg/injection, schedule: Q01DX009 (ip), vehicle: saline) 106 % of control.
Take `Cc1cc2sccc2cn1`: the T/C (endpoint: mean survival time, dose: 25.0 mg/kg/injection, schedule: Q01DX009 (ip), vehicle: saline with Tween-80) was 100 % of control; the T/C under setting [8] is 98 % of control; the T/C under setting [4] is 98 % of control; the T/C under setting [1] is 90 % of control.
Regarding `Cc1ccc(NN=O)nc1`, the T/C runs as follows: (endpoint: median survival time, dose: 1.5 mg/kg/injection, schedule: Q01DX009 (ip), vehicle: water) 110 % of control; (endpoint: median survival time, dose: 1.56 mg/kg/injection, schedule: Q01DX009 (ip), vehicle: water) 114 % of control; (endpoint: median survival time, dose: 3.0 mg/kg/injection, schedule: Q01DX009 (ip), vehicle: water) 114 % of control; (endpoint: median survival time, dose: 3.12 mg/kg/injection, schedule: Q01DX009 (ip), vehicle: water) 123 % of control; (endpoint: median survival time, dose: 12.0 mg/kg/injection, schedule: Q01DX009 (ip), vehicle: water) 156 % of control; (endpoint: median survival time, dose: 24.0 mg/kg/injection, schedule: Q01DX009 (ip), vehicle: water) 115 % of control and 106 % of control.
For `C=CCCC(Cc1ccccc1)C1=NC(C)(C)CC(C)O1` (configuration not stated), the T/C is, setting by setting: (endpoint: mean survival time, dose: 6.25 mg/kg/injection, schedule: Q01DX001 (ip), vehicle: saline) 102 % of control; (endpoint: mean survival time, dose: 12.5 mg/kg/injection, schedule: Q01DX001 (ip), vehicle: saline) 96 % of control; (endpoint: mean survival time, dose: 25.0 mg/kg/injection, schedule: Q01DX001 (ip), vehicle: saline) 97 % of control.

These data come from PubChem BioAssay AID256 (DTP/NCI, 2004).
